Assay results reported in PubChem BioAssay AID256 (DTP/NCI, 2004).
Inconclusive results and toxic doses are left out. The calls were made as follows: active = survival T/C of 150% or more; inactive = T/C below 125% in these data.

System: CD2F1 mice, L1210 leukemia ip, survival T/C
Experiment: NCI In Vivo Anticancer Drug Screen. Data for tumor model L1210 Leukemia (intraperitoneal) in CD2F1 (CDF1) mice
Details: endpoint: mean survival time, higher = longer survival
Summary of the method: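 Each value reflects a quotient of treated over vehicle control outcomes in mice with a transplanted tumor.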

Measured: T/C

O=C1C=CC(=O)C2CC=CCC12 (configuration not stated)
inactive: dose: 10.0 mg/kg/injection, schedule: Q01DX009 (ip), vehicle: saline with Tween-80 103 % of control | dose: 12.5 mg/kg/injection, schedule: Q04DX003 (ip), vehicle: saline with Tween-80 101 % of control | dose: 20.0 mg/kg/injection, schedule: Q01DX009 (ip), vehicle: saline with Tween-80 107 % of control | dose: 25.0 mg/kg/injection, schedule: Q04DX003 (ip), vehicle: saline with Tween-80 104 % of control | dose: 40.0 mg/kg/injection, schedule: Q01DX009 (ip), vehicle: saline with Tween-80 98 % of control | dose: 50.0 mg/kg/injection, schedule: Q04DX003 (ip), vehicle: saline with Tween-80 98 % of control | dose: 100.0 mg/kg/injection, schedule: Q04DX003 (ip), vehicle: saline with Tween-80 100 % of control | dose: 200.0 mg/kg/injection, schedule: Q04DX003 (ip), vehicle: saline with Tween-80 93 % of control | dose: 400.0 mg/kg/injection, schedule: Q04DX003 (ip), vehicle: saline with Tween-80 100 % of control

CCNC(=S)N1c2c(nc(N)[nH]c2=O)NCC1CNc1ccc(C(=O)NC(CCC(=O)O)C(=O)O)cc1 (configuration not stated)
inactive: dose: 100.0 mg/kg/injection, schedule: Q01DX001 (ip), vehicle: alkali diluted with saline 98 % of control | dose: 200.0 mg/kg/injection, schedule: Q01DX001 (ip), vehicle: alkali diluted with saline 101 % of control | dose: 400.0 mg/kg/injection, schedule: Q01DX001 (ip), vehicle: alkali diluted with saline 103 % of control

CCc1ccc(-n2cnc3c(=O)[nH]c(N)nc32)cc1
inactive: dose: 100.0 mg/kg/injection, schedule: Q01DX001 (ip), vehicle: saline with Tween-80 87 % of control | dose: 400.0 mg/kg/injection, schedule: Q01DX001 (ip), vehicle: saline with Tween-80 93 % of control

O=[N+]([O-])c1ccc(CS(=O)(=O)O)cc1
inactive: dose: 100.0 mg/kg/injection, schedule: Q04DX002 (ip), vehicle: saline 104 % of control | dose: 200.0 mg/kg/injection, schedule: Q04DX002 (ip), vehicle: saline 96 % of control | dose: 400.0 mg/kg/injection, schedule: Q04DX002 (ip), vehicle: saline 96 % of control
